In patent US4006204A, “Phosphoric acid diesters” (priority 1975, dated 1977):
Where two headings read alike, the source gives them in different places.

How the values were obtained:
[1] = system: mouse diarrhea induced by intraperitoneal prostaglandin E2; test: Prevention of mouse diarrhea induced by intraperitoneal prostaglandin E2 injection; type: in vivo; conditions: for ED50: Mus musculus, ip, administered intraperitoneally
Protocol: Compounds 1 and 2 of Table 2 were tested for their effectiveness in preventing mouse diarrhea induced by intraperitoneal prostaglandin E2 injection. The data are summarized below in Table 5:
^1 dose administered i.p.

[2] = system: croton oil-induced rat ear edema; test: Tonelli anti-inflammatory animal test, croton oil-induced rat ear edema; type: in vivo; conditions: for % protection at 0.3% / % protection at 1.0% / % protection at 3.0%: croton oil rat ear edema; for potency in reducing edema produced by croton oil (conclusion in words): compared with hydrocortisone, summary of Table 4
Protocol: The following compounds were tested in the standard Tonelli anti-inflammatory animal test model for their effectiveness in preventing croton oil-induced rat ear edema.

prostaglandin synthetase = target: T1, prostaglandin synthetase (Bos taurus, UniProt O62664); test: Prostaglandin synthetase inhibition (procedure of Flower et al.); type: biochemical, bovine
T1 construct: enzyme source was bovine; from tissue; host or cells: bovine seminal vesicles
T1 sequence (O62664 25-600): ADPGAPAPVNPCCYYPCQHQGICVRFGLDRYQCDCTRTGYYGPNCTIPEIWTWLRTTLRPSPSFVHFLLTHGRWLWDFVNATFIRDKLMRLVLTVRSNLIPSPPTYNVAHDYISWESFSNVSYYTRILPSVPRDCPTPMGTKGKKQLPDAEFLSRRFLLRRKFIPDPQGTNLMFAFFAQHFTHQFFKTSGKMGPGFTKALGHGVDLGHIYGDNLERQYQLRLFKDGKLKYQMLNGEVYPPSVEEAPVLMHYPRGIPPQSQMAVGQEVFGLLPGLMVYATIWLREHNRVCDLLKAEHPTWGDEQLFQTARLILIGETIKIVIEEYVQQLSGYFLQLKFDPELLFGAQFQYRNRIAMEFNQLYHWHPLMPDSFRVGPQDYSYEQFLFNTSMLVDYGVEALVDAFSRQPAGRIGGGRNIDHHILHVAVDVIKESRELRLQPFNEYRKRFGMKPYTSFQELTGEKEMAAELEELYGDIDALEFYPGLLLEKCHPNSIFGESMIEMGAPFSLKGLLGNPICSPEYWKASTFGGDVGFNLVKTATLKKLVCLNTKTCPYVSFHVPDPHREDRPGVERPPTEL
Protocol: Compounds were tested for prostaglandin synthetase inhibition via the procedure of Flower et al. (Prostaglandins 4: 325, 1973).

prostaglandin receptor = test: Blocking of prostaglandin receptor activity, guinea pig ileum vs Prostaglandin E2; type: biochemical; conditions: for prostaglandin receptor blocking activity (conclusion in words): summary of Table 1
Protocol: The following compounds were tested for their biological activity in blocking prostaglandin receptor activity. This test is useful in that many kinds of inflammation are at least partially prostaglandin mediated. Table 1 below tabulates the results.
^1 PGE2 : Guinea pig ileum IC50 vs Prostaglandin E2

[3] = enzyme source bovine seminal vesicles

prostaglandin synthetase inhibition at 50 μM (prostaglandin synthetase; [3]) | Structure (SMILES) | % prevention of diarrhea ([1]; 30 Mg/kg i.p.) [%] | % prevention of diarrhea ([1]; 60 Mg/kg i.p.) [%] | % prevention of diarrhea ([1]; 100 Mg/kg i.p.) [%] | ED50 [1] [mg/kg] | % protection at 0.3% [2] [%] | % protection at 1.0% [2] [%] | % protection at 3.0% [2] [%] | potency in reducing edema produced by croton oil (conclusion in words) [2] | IC50 (prostaglandin synthetase) [µM] | prostaglandin synthetase blocking (conclusion in words) (prostaglandin synthetase; compared with indomethacin, summary of Table 3) | prostaglandin receptor blocking activity (conclusion in words) (prostaglandin receptor) | IC50 (prostaglandin synthetase; enzyme source bovine seminal vesicles, read-out: ID50 vs Prostaglandin E2 (prostaglandin synthetase inhibition)) [µM] | Guinea pig ileum inhibition vs Prostaglandin E2 (prostaglandin receptor; Guinea pig ileum, vs PGE2, at 30 × 10^^-6)
 | CC(OP(=O)(O)Oc1ccccc1)c1ccc(C2CCCCC2)c(Cl)c1 (stereo not drawn) [Compound 1] | 0 | 60 | 70 | ~60 | 0.0 | 23.4 | 53.8 | approximately as potent as hydrocortisone | 18 | effective blocker of prostaglandin synthetase, comparable in effect to indomethacin | prostaglandin receptor blockers |  | 
 | CC(COP(=O)(O)Oc1ccccc1)c1ccc(C2CCCCC2)c(Cl)c1 (stereo not drawn) [Compound 2] | 40 | 50 | 70 | ~60 | 15.9 | 51.3 | 65.4 | approximately as potent as hydrocortisone | 50 |  | prostaglandin receptor blockers |  | 
 | CC(C(=O)O)c1ccc(C2CCCCC2)c(Cl)c1 (stereo not drawn) [Compound 3] |  |  |  |  |  |  |  |  |  |  | weak or have no prostaglandin-blocking activity | 2 to 4 | No inhibition
no inhibition | CC(CO)c1ccc(C2CCCCC2)c(Cl)c1 (stereo not drawn) [Compound 4, reference compound] |  |  |  |  |  |  |  |  |  |  | weak or have no prostaglandin-blocking activity |  | 
insignificant | CC(O)c1ccc(C2CCCCC2)c(Cl)c1 (stereo not drawn) [Compound 5, reference compound] |  |  |  |  |  |  |  |  |  |  |  |  | 
 | C[C@]12CCC(=O)C=C1CC[C@@H]1[C@@H]2[C@@H](O)C[C@@]2(C)[C@H]1CC[C@]2(O)C(=O)CO [hydrocortisone, reference compound] |  |  |  |  | 13.8 | 45.9 | 68.7 |  |  |  |  |  | 
